Earlier results on 1 compound are cited in patent EP0409862B1, “TOPICAL PREPARATIONS” (Seton Healthcare Group plc, priority 1988, dated 1989).

SMILES strings stand for the structures.

Consider `COC1=CC(=O)C[C@@H](C)[C@]12Oc1c(Cl)c(OC)cc(OC)c1C2=O` [Griseofulvin], for which the “solubility in various organic liquids such as alcohols” value is “soluble”. Where the note is “fine powder”, the solubility in water entry is “essentially insoluble”.
